Measurements taken from patent EP2698385A1, “Detection of synthetic cannabinoids” (priority 2012, dated 2014).
Read-outs that look alike come from different tables or passages of the source.

How the values were obtained:
Assay type in all cases: binding, sheep
Antibody to Immunogen IV = details: Cross-reactants at 100 ng/ml, Antibody to Immunogen IV
Description: (§1) An aqueous solution of each immunogen was formulated with Freund's Complete Adjuvant (FCA) to form an emulsion consisting of 2mg/ml* immunogen in 50% (v/v) FCA. Three sheep were immunised with this emulsion (1° immunisation), 0.25ml being intramuscularly injected at each of four sites in the flank of each animal. Subsequent immunizations (boosts) contained 1mg/ml* immunogen. All boosts were emulsified in 50% (v/v) Freund's Incomplete Adjuvant (FIA) and were administered in the same manner as the 1° immunisation, at monthly intervals. Blood sampling took place 7 to 14 days after each boost. *The general procedure for immunogen administration is outlined above, however, it was necessary to deviate from this protocol in some cases, due to reduced immunogen concentrations (Immunogens II, IV, VII and VIII) and/or amount available (Immunogen VIII). Any deviations from the protocol described are outlined in Table 1A below and highlighted in bold. Table 1A: Amount and volume of immunogens administered for primary and subsequent boosts
(§2) The wells of an enhanced binding 96 well polystyrene microtiter plate were coated with IgG fraction of antiserum raised to Immunogen I or II, diluted in 10mM Tris, pH8.5 (125µl/well). The appropriate antibody coating dilution was determined using standard ELISA checkerboard techniques. The plate was incubated overnight at 4°C, washed 4 times over 10 minutes with Tris buffered saline containing Tween 20 (TBST) and tapped dry. Standard solutions (JWH-018 for Immunogens I and II) were applied at 0, 0.625, 1.25, 2.5, 5, 10, 20 and 40ng/ml and 50µl of each was added to the appropriate wells. 75µl of conjugate (appropriate hapten-HRP) diluted in Tris buffer (pH 7.2) containing EDTA, D-mannitol, sucrose, thimerosal and BSA, was added to each of the wells. The appropriate dilution of conjugate was also determined using standard ELISA checkerboard techniques. The plate was incubated at 25°C for 1 hour. Excess unbound conjugate was removed by washing 6 times over a 10 minute period with TBST. 125µl of tetramethylbenzidine (TMB) substrate solution was added to each well of the plate that was then incubated for 20 minutes in the dark at room temperature. The reaction was terminated by addition of 125µl 0.2M H2SO4 to each well. The absorbance was then measured at 450nm using a microtiter plate reader. The data are inputted to a computer program called 'KC Junior'. It is a 4 parameter fit curve and allow the calculatation of concentrations between the standard runs. This program is used to calculate the IC50s by dividing the 0ng/ml OD value by 2 and obtaining the concentration value from the curve for this OD.
(§3) In a similar manner to that described above, the wells of a 96-well microtiter plate were coated with the IgG fraction of the antiserum raised to Immunogens IV, VII or VIII. Standard solutions (JWH-018 for Immunogens IV and VIII, JWH-015 for Immunogen VII) were prepared in TBST at 0, 1.25, 2.5, 5, 10, 20, 40 and 80ng/ml and conjugate was employed as detection reagent.
(§4) The data set our in Tables 3 and 4 are generated using antibodies raised against the indicated Immunogens in a competitive binding assay with the indicated tracers, using the indicated standards: Table 2
(§5) A450 = absorbance at 450nm B = absorbance at 450nm at xng/ml standard concentration B0 = absorbance at 450nm at 0ng/ml standard concentration IC50 = standard concentration which produces 50% B/B0
(§6) In order to determine the specificity of the competitive ELISAs, standard solutions of a range of structurally similar synthetic cannabinoids and their metabolites were prepared in TBST. Using the calibration curves generated and employing a single level of cross reactants, these were used to determine the cross-reactivity of each immunoassay with these substances. […]

[1] = tested on: Antibody to Immunogen VII; details: Cross-reactants at 100 ng/ml, Antibody to Immunogen VII
Description: as §1, §2, §3, §4, §5, §6

[2] = tested on: Antibody to Immunogen VIII; details: Cross-reactants at 100 ng/ml, Antibody to Immunogen VIII
Description: as §1, §2, §3, §4, §5, §6

Antibody to Immunogen I = details: Cross-reactants at 100 ng/ml, Antibody to Immunogen I
Description: as §1, §2
In a similar manner to that described above, the wells of a 96-well microtiter plate were coated with the IgG fraction of the antiserum raised to Immunogens I or II. Standard solutions (JWH-018 for Immunogen I and II) were applied at 0, 0.625, 1.25, 2.5, 5, 10, 20 and 40ng/ml and conjugate was employed as detection reagent.
as §4, §5, §6

[3] = listed as YWH-081 7-methoxynaphthyl isomer (JWH-164)

With `CCCCCn1cc(C(=O)c2cccc3ccc(OC)cc23)c2ccccc21` [JWH-164 (JWH-081 7-methoxynaphthyl isomer), JWH-081 7-methoxynaphthyl isomer] the “%B/B0” value (Antibody to Immunogen IV) was 36.14%, the “%B/B0” value (Antibody to Immunogen IV; [3]) was 39.20% and the “%B/B0” value [1] was 96.13%. For the same molecule, the “%B/B0” value [1, 3] was 97.60%, the “%B/B0” value [2] was 57.93% and the “%B/B0” value [2, 3] was 59.51%. The “%B/B0” value (Antibody to Immunogen I) was 91.86% and the “%B/B0” value (Antibody to Immunogen I; [3]) was 88.26%.
For `COc1ccc(C(=O)c2cn(CCCCCC(=O)O)c3ccccc23)cc1` [RCS-4 N-(5-carboxypentyl) metabolite], the “%B/B0” value (Antibody to Immunogen IV) was 91.44%, the “%B/B0” value [1] was 94.00% and the “%B/B0” value [2] was 91.97%. The “%B/B0” value (Antibody to Immunogen I) was 77.12%.
For `COc1ccc(C(=O)c2c(C)n(CCN3CCOCC3)c3ccccc23)cc1` [WIN-48,098 (other name Pravadoline), Pravadoline], the “%B/B0” value (Antibody to Immunogen IV) was 91.64%, the “%B/B0” value [1] was 92.41% and the “%B/B0” value [2] was 97.90%. For the same molecule, the “%B/B0” value (Antibody to Immunogen I) was 90.05%.
In the case of `COc1ccc(C(=O)c2cn(CCCCCO)c3ccccc23)cc1` [RCS-4 N-(5-hydroxypentyl) metabolite], the “%B/B0” value (Antibody to Immunogen IV) is reported as 61.03%, the “%B/B0” value [1] is reported as 94.55% and the “%B/B0” value [2] is reported as 19.13%. The “%B/B0” value (Antibody to Immunogen I) was 59.51%.
With `COc1ccccc1CC(=O)c1cn(CCCCCO)c2ccccc12` [JWH 250 N-(5-hydroxypentyl) metabolite] the “%B/B0” value (Antibody to Immunogen IV) was 76.22%, the “%B/B0” value [1] was 96.13% and the “%B/B0” value [2] was 42.79%. For the same molecule, the “%B/B0” value (Antibody to Immunogen I) was 75.47%.
`CCCCCn1cc(C(=O)Cc2ccccc2Cl)c2ccccc21` [JWH-203] was tested, and the “%B/B0” value (Antibody to Immunogen IV) was 52.15%, the “%B/B0” value [1] was 99.08% and the “%B/B0” value [2] was 9.19%. The “%B/B0” value (Antibody to Immunogen I) was 72.55%.
In the case of `CCCCCn1cc(C(=O)c2c(CC)ccc3ccccc23)c2ccccc21` [JWH-210 2-ethylnaphthyl isomer], the “%B/B0” value (Antibody to Immunogen IV) is reported as 53.97%, the “%B/B0” value [1] is reported as 96.13% and the “%B/B0” value [2] is reported as 73.51%. The “%B/B0” value (Antibody to Immunogen I) was 81.37%.
With `CCCCCn1cc(C(=O)Cc2ccc(Cl)cc2)c2ccccc21` [JWH-206 (JWH-203 4-chloro isomer), JWH-203 4-chloro isomer] the “%B/B0” value (Antibody to Immunogen IV) was 65.63%, the “%B/B0” value [1] was 97.17% and the “%B/B0” value [2] was 10.55%. The “%B/B0” value (Antibody to Immunogen I) was 75.96%.
With (+-)-CP 55,940 [((+-)-CP 55,940)] the “%B/B0” value (Antibody to Immunogen IV) was 94.60%, the “%B/B0” value [1] was 100.25% and the “%B/B0” value [2] was 100.25%. The “%B/B0” value (Antibody to Immunogen I) was 100.61%.
For `O=C(c1ccc2ccccc2c1)c1cn(CCN2CCOCC2)c2ccccc12` [JWH-200 2'-naphthyl isomer], the “%B/B0” value (Antibody to Immunogen IV) was 92.29%, the “%B/B0” value [1] was 94.65% and the “%B/B0” value [2] was 96.12%. The “%B/B0” value (Antibody to Immunogen I) was 28.57%.
With `CCCC(C)(C)c1ccc2c(c1)OC(C)(C)[C@@H]1CC=C(C)C[C@@H]21` [JWH-133] the “%B/B0” value (Antibody to Immunogen IV) was 98.18%, the “%B/B0” value [1] was 101.84% and the “%B/B0” value [2] was 100.00%. For the same molecule, the “%B/B0” value (Antibody to Immunogen I) was 100.56%.
With `CCCCCn1cc(C(=O)Cc2ccc(OC)cc2)c2ccccc21` [JWH-201] the “%B/B0” value (Antibody to Immunogen IV) was 59.03%, the “%B/B0” value [1] was 100.25% and the “%B/B0” value [2] was 8.26%. The “%B/B0” value (Antibody to Immunogen I) was 77.14%.
In the case of `CCCCCCC(C)(C)c1cc(OC)c([C@@H]2C=C(CO)[C@@H]3C[C@H]2C3(C)C)c(OC)c1` [HU-308], the “%B/B0” value (Antibody to Immunogen IV) is reported as 94.03%, the “%B/B0” value [1] is reported as 95.95% and the “%B/B0” value [2] is reported as 89.77%. The “%B/B0” value (Antibody to Immunogen I) was 101.35%.
`O=C(c1ccc(I)cc1)c1cn(CCCCCF)c2ccccc12` [AM-694 4-iodo isomer] was tested, and the “%B/B0” value (Antibody to Immunogen IV) was 27.66%, the “%B/B0” value [1] was 98.71% and the “%B/B0” value [2] was 13.42%. For the same molecule, the “%B/B0” value (Antibody to Immunogen I) was 73.79%.
(-)-CP 55,940 was tested, and the “%B/B0” value (Antibody to Immunogen IV) was 93.02%, the “%B/B0” value [1] was 101.15% and the “%B/B0” value [2] was 97.58%. The “%B/B0” value (Antibody to Immunogen I) was 98.27%.
`CCCCCn1cc(C(=O)Cc2ccccc2OC)c2cc(O)ccc21` [JWH 250 5-hydroxyindole metabolite] was tested, and the “%B/B0” value (Antibody to Immunogen IV) was 84.05%, the “%B/B0” value [1] was 99.88% and the “%B/B0” value [2] was 67.19%. For the same molecule, the “%B/B0” value (Antibody to Immunogen I) was 100.75%.
In the case of `CCCCCn1cc(C(=O)Cc2ccccc2C)c2ccccc21` [JWH-251], the “%B/B0” value (Antibody to Immunogen IV) is reported as 42.02%, the “%B/B0” value [1] is reported as 96.74% and the “%B/B0” value [2] is reported as 9.12%. The “%B/B0” value (Antibody to Immunogen I) was 68.01%.
In the case of `CCCCCn1cc(C(=O)c2ccc(OC)c3ccccc23)c2ccccc21` [JWH-081], the “%B/B0” value (Antibody to Immunogen IV) is reported as 3.78%, the “%B/B0” value [1] is reported as 86.72% and the “%B/B0” value [2] is reported as 15.88%. For the same molecule, the “%B/B0” value (Antibody to Immunogen I) was 62.13%.
`COc1ccc(C(=O)c2c(C)n(CCN3CCOCC3)c3cc(I)ccc23)cc1` [AM-630 (other name 6-Iodopravadoline), 6-Iodopravadoline] was tested, and the “%B/B0” value (Antibody to Immunogen IV) was 90.17%, the “%B/B0” value [1] was 99.88% and the “%B/B0” value [2] was 89.88%. The “%B/B0” value (Antibody to Immunogen I) was 91.12%.
In the case of `CN1CCCCC1Cn1cc(C(=O)c2cc([N+](=O)[O-])ccc2I)c2ccccc21` (stereo not drawn) [AM-1241], the “%B/B0” value (Antibody to Immunogen IV) is reported as 91.38%, the “%B/B0” value [1] is reported as 94.96% and the “%B/B0” value [2] is reported as 102.46%. For the same molecule, the “%B/B0” value (Antibody to Immunogen I) was 85.61%.
`CCCCCCC(C)(C)c1cc(O)c2c(c1)OC(C)(C)[C@@H]1CC=C(CO)C[C@@H]21` [HU-210] was tested, and the “%B/B0” value (Antibody to Immunogen IV) was 92.53%, the “%B/B0” value [1] was 100.39% and the “%B/B0” value [2] was 93.42%. For the same molecule, the “%B/B0” value (Antibody to Immunogen I) was 102.57%.
`CCc1ccc(C(=O)c2cn(CCCCCC(=O)O)c3ccccc23)c2ccccc12` [JWH-210 N-(5-carboxypentyl) metabolite] was tested, and the “%B/B0” value (Antibody to Immunogen IV) was 85.29%, the “%B/B0” value [1] was 96.07% and the “%B/B0” value [2] was 96.27%. The “%B/B0” value (Antibody to Immunogen I) was 76.77%.
In the case of `CCCCCCC(C)(C)C1=CC(=O)C([C@@H]2CCC[C@H](O)C2)=CC1=O` [CP-47,497-para-quinone analogue], the “%B/B0” value (Antibody to Immunogen IV) is reported as 97.33%, the “%B/B0” value [1] is reported as 93.29% and the “%B/B0” value [2] is reported as 88.11%. The “%B/B0” value (Antibody to Immunogen I) was 100.26%.
`CCCCCn1ccc(C(=O)c2cccc3ccccc23)c1` [JWH-030] was tested, and the “%B/B0” value (Antibody to Immunogen IV) was 93.17%, the “%B/B0” value [1] was 89.66% and the “%B/B0” value [2] was 94.25%. For the same molecule, the “%B/B0” value (Antibody to Immunogen I) was 61.17%.
For `CCCCCn1cc(C(=O)Cc2cccc(C)c2)c2ccccc21` [JWH 251 3-methylphenyl isomer], the “%B/B0” value (Antibody to Immunogen IV) was 51.15%, the “%B/B0” value [1] was 99.32% and the “%B/B0” value [2] was 8.97%. The “%B/B0” value (Antibody to Immunogen I) was 85.90%.
In the case of `CCCCn1cc(C(=O)c2ccc(C)c3ccccc23)c2ccccc21` [JWH-073 4-methylnaphthyl analogue], the “%B/B0” value (Antibody to Immunogen IV) is reported as 7.01%, the “%B/B0” value [1] is reported as 78.36% and the “%B/B0” value [2] is reported as 19.75%. For the same molecule, the “%B/B0” value (Antibody to Immunogen I) was 45.54%.
